Data published in PMC11857211, “Bioprospecting Bioactive Peptides in Halobatrachus didactylus Body Mucus: From In Silico Insights to Essential In Vitro Validation” (Marine Drugs, 2025).
Entries after “also recorded” stand apart in the source; their conditions may differ.

Experiments:
[1] = system: E. coli biofilm; assay: Antibiofilm activity (crystal violet); assay type: cell-based, Escherichia coli; conditions: 24 h incubation, HdKTLR 262, HdKNL 262, HdPPP 130, HdVLPN 204, HdLPN 227 µg/mL, OD 595 nm
Protocol: (§1) The antibiofilm activity was determined according to the following method, with some modifications. Taking the microplate from 24 h inhibition growth curves, the contents of the plate were discarded, and each well was carefully washed three times with distilled water to remove non-adherent cells. The adhered cells were fixed with 150 µL of methanol for 10 min. Then, the methanol was discarded, the plates were left to dry, and then, the fixed biofilm was stained with […] of crystal violet (CV) for 10 min. Excess stain was rinsed out by placing the plate under slow-running tap water. Once the plates were air-dried, the dye attached to the adherent cells was resolubilized by adding 150 µL of 33% (v/v) glacial acetic acid and agitated for 15 min. The optical density of the solution obtained was measured at 595 nm using a multidetection plate reader (Synergy H1, Winooski, VT, USA). All tests were carried out in duplicate, with a positive control using an inoculated culture in MH broth and a negative control using MH broth only. The results are presented as the percentage of biofilm formation, calculated according to the following formula, where the OD of the sample is the measured OD of the inoculated medium mixed with the peptides, and the OD of the positive control is the OD measured for the positive control.% Biofilm formation = (ODsample/ODpositive control) × 100(1)

[2] = ABTS radical scavenging assay; conditions: for Effect of pH and ionic strength on ABTS antioxidant activity: ABTS radical solution in HPSEC buffers, 344 and 700 mM, pH 3.0, 5.0, 7.0; for ABTS radical scavenging value: SD
Protocol: ABTS radical activity is based on an antioxidant’s capacity to scavenge the ABTS’s oxidized state. For this, ABTS radical scavenging activity was performed in a 96-well microplate, following the method described by. The absorbance was measured with a multidetection plate reader (Synergy H1, Winooski, VT, USA). For each sample, the standard and control analyses were duplicated. All measurements were performed in duplicate. The results are expressed in µmol of Trolox equivalents/µmol of peptide. To test the antioxidant activity under different pH and ionic strength conditions, the ABTS radical solution was prepared using the same buffers employed in the HPSEC analysis.

[3] = system: S. aureus biofilm; assay: Antibiofilm activity (crystal violet); assay type: cell-based, Staphylococcus aureus; conditions: 24 h incubation, HdKTLR 262, HdKNL 262, HdPPP 130, HdVLPN 204, HdLPN 227 µg/mL, OD 595 nm
Protocol: as §1

[4] = High-performance size exclusion chromatography (HPSEC): molecular size and aggregation; assay type: physicochemical; conditions: for Aggregation behaviour in HPSEC: Agilent AdvanceBio SEC 130 Å, isocratic, buffers 344 mM or 700 mM at pH 3.0, 5.0, 7.0, PDA detection
Protocol: The HPSEC column was eluted with 344 mM of a phosphate buffer at pH 7.0, replicating the conditions used to analyze the mucus peptide fraction in our previous article. During the analysis, we observed the formation of peptide aggregates, specifically oligomers, including dimers, trimers, and tetramers. Various buffer conditions were tested to determine if a particular pH and ionic strength would enable the peptides to expose their theoretical molecular weights, as specified in the GenScript technical datasheet. Since seawater typically has an ionic strength of approximately 700 mM [10], buffers with this ionic strength were tested at pH 3.0, 5.0, and 7.0, as well as at 344 mM of ionic strength.
The peptides’ molecular size validation was determined using high-performance size exclusion chromatography (HPSEC). An Agilent AdvanceBio SEC column (Agilent Technologies, London, UK), 2.7 µm in particle size, 130 Å in pore size, and 7.8 in inner diameter × 300 mm in length, was used. The column was eluted isocratically using various buffers with different pH and ionic strengths, namely, 344 mM at pH 7 (0.15 M of a phosphate buffer with NaH2PO4), 700 mM at pH 7 (0.15 M of a phosphate buffer with NaH2PO4 and NaCl), 344 mM at pH 5 (0. 15 M of an acetate buffer with acetic acid and NaCl), 700 mM at pH 5 (0.15 M of an acetate buffer with acetic acid and NaCl), 344 mM at pH 3 (0.05 M of a formate buffer with fomic acid and NaCl), and 700 mM at pH 3 (0.05 M of a formate buffer with formic acid and NaCl) at a flow rate of 1 mL/min. The sample injection volume was 10 µL. The instrument used was Waters 2690 with a photodiode array detector (PDA 190–600 nm). The software Empower 3 was used for data collection. To determine the molecular weights of the resulting chromatogram peaks, a calibration curve was made with the following protein standards: Ovalbumin (44,300 Da), Myoglobin (17,600 Da), Cytochrome C (12,327 Da), Aprotinin (6511 Da), Neurotensin (1672 Da), Angiotensin-II (1040 Da), Tyr-Phe dipeptide (328.4 Da), and L-tryptophan (204 Da).

[5] = pH 3 and 344 mM ionic strength, means (n ≥ 3) ± SD
[6] = pH 7.0 and 700 mM ionic strength, means (n ≥ 3) ± SD

Sequence	Biofilm formation versus control [1]	Effect of pH and ionic strength on ABTS antioxidant activity [2]	ABTS ([2]; peptide in H2O (HdPPP in DMSO), means (n ≥ 3) ± SD, nd: not detected)	Biofilm formation versus control [3]	Aggregation behaviour in HPSEC [4]	ABTS radical scavenging value [2, 5]	ABTS radical scavenging value [2, 6]	Molecular weight observed by HPSEC (aggregate) ([4]; buffers with ionic strengths of 344 mM and 700 mM at pH 7.0 and pH 5.0, theoretical molecular weight 1588.4 Da)
DPPNPKNL [HdKNL]	no significant differences	remained unaffected by a decrease in pH	no antioxidant activity was observed	no significant differences	aggregate formation increased at higher pH conditions; also recorded: aggregation was still observed			
PFPGPLPN [HdLPN]	no significant differences	significant decrease in antioxidant activity		no significant differences	forming only dimers; also recorded: aggregation was still observed	0.012 ± 0.004 µmol TE/µmol of peptide	0.283 ± 0.177 µmol TE/µmol of peptide	
EDNSELGQETPTLR [HdKTLR]	no significant differences	no observable antioxidant activity		no significant differences	formation of aggregates into oligomers; also recorded: pronounced aggregation			approximately 7836 Da
VYPFPGPLPN [HdVLPN]	no significant differences	significant decrease in antioxidant activity		no significant differences	degree of polymerization was less prominent than in the other peptides; also recorded: aggregation was still observed	0.163 ± 0.002 µmol TE/µmol of peptide	0.827 ± 0.021 µmol TE/µmol of peptide	
